Where “and” joins values, the source holds several entries; their conditions need not be identical. Equal values may be shown once.
Test system: 349418-098-R-PDC complex spheroid viability
Assay: Anticancer human tumor 349418-098-R-PDC patient-derived lung adenocarcinoma cell line growth inhibition
Conditions: for viability, T/C: stronger effect = lower value
Procedure, shortened: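 Complex spheroids of tumor cells with HUVEC and human MSCs, exposed to iadademstat combined with other agents. Each agent tested in half-log steps from near clinical Cmax (else 10 microM top), DMSO ≤0.25%.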

[1] = curve of first compound, second compound 0.1 µM
[2] = curve of first compound, second compound 0.316 µM
[3] = curve of first compound, second compound 1 µM
[4] = curve of first compound, second compound 3.16 µM
[5] = curve of first compound, second compound 10 µM
[6] = second compound 0.1 µM, first compound 0.0316 µM
[7] = second compound 0.1 µM, first compound 0.1 µM
[8] = second compound 0.316 µM, first compound 0.0316 µM
[9] = second compound 0.316 µM, first compound 0.1 µM
[10] = second compound 1 µM, first compound 0.0316 µM
[11] = second compound 1 µM, first compound 0.1 µM
[12] = second compound 3.16 µM, first compound 0.0316 µM
[13] = second compound 3.16 µM, first compound 0.1 µM
[14] = second compound 10 µM, first compound 0.0316 µM
[15] = second compound 10 µM, first compound 0.1 µM
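Further: spheroids exposed to agents for seven days before readout.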
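Wherever viability, T/C is given: 100% = DMSO vehicle control wells.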

Compound `Cn1ncnc1C1c2n[nH]c(=O)c3cc(F)cc(c23)NC1c1ccc(F)cc1` (stereo unspecified) + NC1CCC(NC2CC2c2ccccc2)CC1 has an IC50 [1] greater than 0.1 µM, an IC50 [2] greater than 0.1 µM and an IC50 [3] greater than 0.1 µM. The IC50 [4] was greater than 0.1 µM, the IC50 [5] was greater than 0.1 µM and the viability, T/C (second compound 0.1 µM, first compound 0.000316 µM) was 101%. For the same compound, the viability, T/C (second compound 0.1 µM, first compound 0.001 µM) was 96%, the viability, T/C (second compound 0.1 µM, first compound 0.00316 µM) was 94.8% and the viability, T/C (second compound 0.1 µM, first compound 0.01 µM) was 95.3%. It also gave a viability, T/C [6] of 106%, a viability, T/C [7] of 92.5% and a viability, T/C (second compound 0.316 µM, first compound 0.000316 µM) of 108%. It also gave a viability, T/C (second compound 0.316 µM, first compound 0.001 µM) of 110%, a viability, T/C (second compound 0.316 µM, first compound 0.00316 µM) of 116% and a viability, T/C (second compound 0.316 µM, first compound 0.01 µM) of 92.2%. For the same compound, the viability, T/C [8] was 97.6%, the viability, T/C [9] was 99.5% and the viability, T/C (second compound 1 µM, first compound 0.000316 µM) was 115%. For the same compound, the viability, T/C (second compound 1 µM, first compound 0.001 µM) was 112%, the viability, T/C (second compound 1 µM, first compound 0.00316 µM) was 96.8% and the viability, T/C (second compound 1 µM, first compound 0.01 µM) was 112%. It also gave a viability, T/C [10] of 111%, a viability, T/C [11] of 87% and a viability, T/C (second compound 3.16 µM, first compound 0.000316 µM) of 107%. The viability, T/C (second compound 3.16 µM, first compound 0.001 µM) was 101%, the viability, T/C (second compound 3.16 µM, first compound 0.00316 µM) was 99.4% and the viability, T/C (second compound 3.16 µM, first compound 0.01 µM) was 98.9%. For the same compound, the viability, T/C [12] was 89.7%, the viability, T/C [13] was 85.9% and the viability, T/C (second compound 10 µM, first compound 0.000316 µM) was 94.5%. The viability, T/C (second compound 10 µM, first compound 0.001 µM) was 91.2%, the viability, T/C (second compound 10 µM, first compound 0.00316 µM) was 94.6% and the viability, T/C (second compound 10 µM, first compound 0.01 µM) was 86.8%. The viability, T/C [14] was 83.7% and the viability, T/C [15] was 87.3%.

`NC1CC1c1ccc(-c2cccc(O)c2)cc1` (stereo unspecified) was tested, and the viability, T/C (compound 1 µM) was 113% [middle of 25 runs] and the IC50 (compound alone, run of 02/01/2022) was greater than 10 µM.

With `Cn1ncnc1C1c2n[nH]c(=O)c3cc(F)cc(c23)NC1c1ccc(F)cc1` (stereo unspecified) the viability, T/C (compound 0.000316 µM) was 97.2% and 97.6%, the viability, T/C (compound 0.001 µM) was 93.6% and 102% and the viability, T/C (compound 0.00316 µM) was 101% and 98.2%. The viability, T/C (compound 0.01 µM) was 94.4% and 94.1%, the viability, T/C (compound 0.0316 µM) was 97.8% and 78.5% and the viability, T/C (compound 0.1 µM) was 89% and 77.8%. It also gave an IC50 (curve of compound) greater than 0.1 µM.

In the case of `O=C(c1cc(Cc2n[nH]c(=O)c3ccccc23)ccc1F)N1CCN(C(=O)C2CC2)CC1` + NC1CC1c1ccc(-c2cccc(O)c2)cc1, the IC50 [1] is reported as 8.91 µM, the IC50 [2] is reported as 8.22 µM and the IC50 [3] is reported as 8.04 µM. The IC50 [4] was greater than 10 µM, the IC50 [5] was 3.19 µM and the viability, T/C [6] was 106%. For the same compound, the viability, T/C [7] was 108%, the viability, T/C (second compound 0.1 µM, first compound 0.316 µM) was 99.3% and the viability, T/C (second compound 0.1 µM, first compound 1 µM) was 99.3%. For the same compound, the viability, T/C (second compound 0.1 µM, first compound 3.16 µM) was 86%, the viability, T/C (second compound 0.1 µM, first compound 10 µM) was 45.5% and the viability, T/C [8] was 111%. The viability, T/C [9] was 105%, the viability, T/C (second compound 0.316 µM, first compound 0.316 µM) was 103% and the viability, T/C (second compound 0.316 µM, first compound 1 µM) was 98.5%. The viability, T/C (second compound 0.316 µM, first compound 3.16 µM) was 77.6%, the viability, T/C (second compound 0.316 µM, first compound 10 µM) was 43.9% and the viability, T/C [10] was 116%. For the same compound, the viability, T/C [11] was 106%, the viability, T/C (second compound 1 µM, first compound 0.316 µM) was 105% and the viability, T/C (second compound 1 µM, first compound 1 µM) was 104%. It also gave a viability, T/C (second compound 1 µM, first compound 3.16 µM) of 69.1%, a viability, T/C (second compound 1 µM, first compound 10 µM) of 45.5% and a viability, T/C [12] of 116%. For the same compound, the viability, T/C [13] was 111%, the viability, T/C (second compound 3.16 µM, first compound 0.316 µM) was 101% and the viability, T/C (second compound 3.16 µM, first compound 1 µM) was 105%. It also gave a viability, T/C (second compound 3.16 µM, first compound 3.16 µM) of 75.5%, a viability, T/C (second compound 3.16 µM, first compound 10 µM) of 52.3% and a viability, T/C [14] of 97.1%. For the same compound, the viability, T/C [15] was 90.3%, the viability, T/C (second compound 10 µM, first compound 0.316 µM) was 75.2% and the viability, T/C (second compound 10 µM, first compound 1 µM) was 67%. For the same compound, the viability, T/C (second compound 10 µM, first compound 3.16 µM) was 49.9% and the viability, T/C (second compound 10 µM, first compound 10 µM) was 33.6%.

For `O=C(c1cc(Cc2n[nH]c(=O)c3ccccc23)ccc1F)N1CCN(C(=O)C2CC2)CC1`, the viability, T/C (compound 0.0316 µM) was 94.6% and 101%, the viability, T/C (compound 0.1 µM) was 97.8% and 94.5% and the viability, T/C (compound 0.316 µM) was 78.8% and 90.7%. The viability, T/C (compound 1 µM) was 65.8% and 85.2%, the viability, T/C (compound 3.16 µM) was 53.2% and 64% and the viability, T/C (compound 10 µM) was 38.9% and 42.3%. The IC50 (curve of compound) was 3.51 µM and 6.75 µM.

— PubChem BioAssay AID1918936 (Molecular Pharmacology Branch, DTP, NCI, 2023)
